The source of these data is patent US11136321B2, “Tricyclic compounds” (ALIGOS THERAPEUTICS, INC., priority 2019, dated 2021).

SMILES strings stand for the structures.

The test system of one test is HBV. Description: HBV-DNA antiviral assay using HepG2.117 cells. Particulars: Hepatitis B virus, 72 h, intracellular HBV DNA by qPCR, 3 days incubation. It counts as cell-based, genotype D HBV. As to the method: The following assay procedure describes the HBV antiviral assay, using HepG2.117 cells, which carry a stably integrated genotype D HBV genome under the control of a Tet-off promoter, and intracellular HBV DNA quantification as endpoint. Cell viability is assessed in parallel by measuring the intracellular ATP content using ATPlite (Perkin Elmer).
On day 0, HepG2.117 cells (which are maintained in routine cell culture with doxycycline present in the medium at a final concentration of 1 μg/mL) were seeded in 96-well plates (white with clear bottom) at a density of 2.0×10^4 cells/well (0.1 mL/well) in medium without doxycycline to induce pgRNA transcription and subsequent formation of HBV particles. The cells were incubated at 37° C. and 5% CO2.
On day 1, medium was removed from each well, the test articles were diluted in culture medium without doxcycyline and 100 μL was added to cell culture wells (9 concentrations, 4-fold dilution). For each plate, 6 untreated (merely DMSO) wells were included. The final concentration of DMSO in the culture medium was 2%. Each plate was prepared in duplicate (one for HBV DNA extraction, one for ATPlite measurement). The cells were incubated at 37° C. and 5% CO2 for 3 days.
On day 4, cell viability was assessed using ATPlite and cell lysates were prepared for HBV DNA extraction and subsequent quantification by qPCR.
Medium was removed from each well and 100 μL of 0.33% NP-40 in H2O was added to each well. Plates were sealed, incubated at 4° C. for 5 mins, vortexed extensively and centrifuged briefly. Next, 35 μL of lysate was added to 65 μL QuickExtract DNA Extraction Solution (Epicentre) in a PCR plate for each well. PCR plate was incubated at 65° C. for 6 mins, 98° C. for 2 mins and finally cooled to 4° C. HBV DNA was then quantified by qPCR with HBV-specific primers and probes as specified in Table 1 using the Bio-Rad SSOAdvanced Universal Probes Supermix on a CFX96 machine (Bio-Rad). The PCR cycle program consisted of 95° C. for 3 mins, followed by 40 cycles at 95° C. for 10 sec and 60° C. for 30 sec.
A DNA standard was prepared by dilution of an IDT gBlock corresponding to the amplicon with concentrations ranging from 10^2 to 10^8 copies/input (i.e. per 4 μL) and used to generate a standard curve by plotting Cq values vs. HBV DNA standard concentration. The quantity of HBV DNA in each sample was determined by interpolating from the standard curve.
Cell viability was calculated as follows: % Cell viability=(luminescence value of test sample)/(average luminescence value of 2% DMSO control)×100%. HBV DNA inhibition was calculated as follows: 100−(HBV DNA copy number of test sample)/(average HBV DNA copy number of 2% DMSO control)×100%. No normalization to entecavir was required due to the excellent dynamic window of this assay. The CC50, EC50 and EC90 values were determined by dose-response curves fitted by GraphPad Prism using “log (agonist) vs. response—Variable slope”.
In turn, `NC(=O)c1ccc(-n2c(=O)c3c(n4ncc(Cc5ccccc5)c24)CN(C(=O)c2ccc(Br)c(Cl)c2)CC3)cc1` [Compound 75, 4-[5-benzyl-12-(4-bromo-3-chloro-benzoyl)-8-oxo-2,3,7,12-tetrazatricyclo [7.4.0.0 2,6]trideca-1(9),3,5-trien-7-yl] benzamide] yielded an EC50 of 500 to 5000 nM. The same measure, in the same setting: the same measure for `CNC(=O)c1ccc(-n2c(=O)c3c(n4ncc(N[C@@H](C)c5ccccc5)c24)CN(C(=O)c2ccc(Br)c(Cl)c2)CC3)cc1` (stereo in doubt) [Compound 74, 4-[12-(4-bromo-3-chloro-benzoyl)-8-oxo-5-[[rac-(1S)-1-phenylethyl]amino]-2,3,7,12-tetrazatricyclo [7.4.0.0 2,6]trideca-1(9),3,5-trien-7-yl]-N-methyl-benzamide]: not above 100 nM; for `CCNC(=O)c1ccc(-n2c(=O)c3c(n4ncc(Cc5ccccc5)c24)CN(C(=O)c2ccc(Br)c(Cl)c2)CC3)cc1` [Compound 61, 4-[5-benzyl-12-(4-bromo-3-chloro-benzoyl)-8-oxo-2,3,7,12-tetrazatricyclo [7.4.0.0 2,6]trideca-1(9),3,5-trien-7-yl]-N-ethyl-benzamide]: 500 to 5000 nM.

On to `CNC(=O)c1ccc(-n2c(=O)c3c(n4ncc(Cc5ccc(F)cc5)c24)CN(C(=O)c2ccc(Br)c(Cl)c2)CC3)cc1` [Compound 59, 4-[12-(4-bromo-3-chloro-benzoyl)-5-[(4-fluorophenyl)methyl]-8-oxo-2,3,7,12-tetrazatricyclo [7.4.0.0 2,6]trideca-1(9),3,5-trien-7-yl]-N-methyl-benzamide], for which the EC50 was not above 100 nM. Still for that read-out and setting: the same measure for `NC(=O)c1ccc(-n2c(=O)c3c(n4ncc(NCc5ccccc5)c24)CN(C(=O)c2ccc(Br)c(Cl)c2)CC3)cc1` [Compound 49, 4-[5-(benzylamino)-12-(4-bromo-3-chloro-benzoyl)-8-oxo-2,3,7,12-tetrazatricyclo [7.4.0.0 2,6]trideca-1(9),3,5-trien-7-yl] benzamide]: not above 100 nM; for `COc1cccc(-n2c(=O)c3c(n4ncc(NCc5ccccc5)c24)CN(C(=O)c2ccc(Br)c(Cl)c2)CC3)c1` [Compound 28, 5-(benzylamino)-12-(4-bromo-3-chloro-benzoyl)-7-(3-methoxyphenyl)-2,3,7,12-tetrazatricyclo [7.4.0.0 2,6] trideca-1(9),3,5-trien-8-one]: 100 to 500 nM; for `O=C(Nc1ccc(F)c(Cl)c1)N1CCc2c(n3nccc3n(Cc3ccccc3)c2=O)C1` [Compound 2, 4-benzyl-N-(3-chloro-4-fluorophenyl)-5-oxo-5,6,7,9-tetrahydropyrazolo[1,5-a]pyrido[4,3-e]pyrimidine-8(4H)-carboxamide]: 500 to 5000 nM. On the same count and under the same terms, the same measure for `CNC(=O)c1ccc(-n2c(=O)c3c(n4ncc(Cc5ccc(OC)cc5F)c24)CN(C(=O)c2ccc(Br)c(Cl)c2)CC3)cc1` [Compound 87, 4-[12-(4-bromo-3-chloro-benzoyl)-5-[(2-fluoro-4-methoxy-phenyl)methyl]-8-oxo-2,3,7,12-tetrazatricyclo [7.4.0.0 2,6]trideca-1(9),3,5-trien-7-yl]-N-methyl-benzamide]: not above 100 nM.

In turn, `CNC(=O)c1ccc(-n2c(=O)c3c(n4ncc(NC(C)c5ccccc5)c24)CN(C(=O)c2ccc(Br)c(C#N)c2)CC3)cc1` (stereo not drawn) [Compound 83, 4-[12-(4-bromo-3-cyano-benzoyl)-8-oxo-5-(1-phenylethylamino)-2,3,7,12-tetrazatricyclo [7.4.0.0 2,6]trideca-1(9),3,5-trien-7-yl]-N-methyl-benzamide] registered an EC50 of 100 to 500 nM. The same measure, in the same setting: the same measure for `CNC(=O)c1ccc(-n2c(=O)c3c(n4ncc(Cc5ccc(C#N)cc5F)c24)CN(C(=O)c2ccc(Br)c(C#N)c2)CC3)cc1` [Compound 84, 4-[12-(4-bromo-3-cyano-benzoyl)-5-[(4-cyano-2-fluoro-phenyl)methyl]-8-oxo-2,3,7,12-tetrazatricyclo [7.4.0.0 2,6]trideca-1(9),3,5-trien-7-yl]-N-methyl-benzamide]: 500 to 5000 nM. Turning to `O=C(c1ccc(Br)cc1)N1CCc2c(n3nccc3n(-c3ccccc3)c2=O)C1` [Compound 3, 8-(4-bromobenzoyl)-4-phenyl-6,7,8,9-tetrahydropyrazolo[1,5-a]pyrido[4,3-e]pyrimidin-5(4H)-one], the EC50 was more than 5000 nM.

`O=C(NC1CC1)c1ccc(-n2c(=O)c3c(n4ncc(Cc5ccccc5)c24)CN(C(=O)c2ccc(Br)c(Cl)c2)CC3)cc1` [Compound 68, 4-[5-benzyl-12-(4-bromo-3-chloro-benzoyl)-8-oxo-2,3,7,12-tetrazatricyclo [7.4.0.0 2,6]trideca-1(9),3,5-trien-7-yl]-N-cyclopropyl-benzamide] had an EC50 of more than 5000 nM. Still for that read-out and setting: the same measure for `N#Cc1cc(C(=O)N2CCc3c(n4ncc(Cc5ccccc5)c4n(-c4ccc(C(N)=O)cc4)c3=O)C2)ccc1Br` [Compound 82, 4-[5-benzyl-12-(4-bromo-3-cyano-benzoyl)-8-oxo-2,3,7,12-tetrazatricyclo [7.4.0.0 2,6]trideca-1(9),3,5-trien-7-yl] benzamide]: more than 5000 nM; for `CNC(=O)c1ccc(-n2c(=O)c3c(n4ncc(Cc5ccccc5)c24)CN(C(=O)c2ccc(Cl)c(Cl)c2)CC3)cc1` [Compound 34, 4-[5-benzyl-12-(3,4-dichlorobenzoyl)-8-oxo-2,3,7,12-tetrazatricyclo [7.4.0.0 2,6]trideca-1(9),3,5-trien-7-yl]-N-methyl-benzamide]: not above 100 nM. On the same count and under the same terms, under `COc1ccc(-n2c(=O)c3c(n4ncc(NS(=O)(=O)c5ccccc5)c24)CN(C(=O)c2ccc(Br)c(Cl)c2)CC3)cc1` [Compound 31, N-[12-(4-bromo-3-chloro-benzoyl)-7-(4-methoxyphenyl)-8-oxo-2,3,7,12-tetrazatricyclo [7.4.0.0 2,6]trideca-1(9),3,5-trien-5-yl] benzenesulfonamide] stands not above 100 nM; under `O=C(c1ccc(Br)c(Cl)c1)N1CCc2c(n3ncc(Cc4ccccc4)c3n(-c3ccc(-n4cccn4)cc3)c2=O)C1` [Compound 77, 5-benzyl-12-(4-bromo-3-chloro-benzoyl)-7-(4-pyrazol-1-ylphenyl)-2,3,7,12-tetrazatricyclo [7.4.0.0 2,6] trideca-1(9),3,5-trien-8-one], more than 5000 nM.

For the compound `CNC(=O)c1ccc(-n2c(=O)c3c(n4ncc([C@H](C)c5ccccc5)c24)CN(C(=O)c2ccc(Br)c(C#N)c2)CC3)cc1` (stereo in doubt) [Compound 57, 4-[12-(4-bromo-3-cyano-benzoyl)-8-oxo-5-[rac-(1R)-1-phenylethyl]-2,3,7,12-tetrazatricyclo [7.4.0.0 2,6]trideca-1(9),3,5-trien-7-yl]-N-methyl-benzamide], the EC50 is not above 100 nM.

The test is the same for the next values; noted with them: intracellular HBV DNA by qPCR, 3 days incubation.
In the case of `CNC(=O)c1ccc(-n2c(=O)c3c(n4ncc(Cc5ccc(OC(F)(F)F)cc5)c24)CN(C(=O)c2ccc(Br)c(Cl)c2)CC3)cc1` [Compound 35, 4-[12-(4-bromo-3-chlorobenzoyl)-8-oxo-5-[[4-(trifluoromethoxy)phenyl]methyl]-2,3,7,12-tetraazatricyclo[7.4.0.0^[2,6]]trideca-1(9),3,5-trien-7-yl]-N-methylbenzamide], the EC50 was not above 100 nM.

The compound `O=C(c1ccc(Br)c(Cl)c1)N1CCc2c(n3nc(Cc4ccccc4)cc3n(-c3ccccc3)c2=O)C1` [Compound 11, 4-benzyl-12-(4-bromo-3-chlorobenzoyl)-7-phenyl-2,3,7,12-tetraazatricyclo[7.4.0.0^[2,6]]trideca-1(9),3,5-trien-8-one] gave an EC50 of more than 5000 nM. The same measure, in the same setting: the same measure for `CNC(=O)c1ccc(-n2c(=O)c3c(n4ncc(Cc5ccccc5)c24)CN(C(=O)c2ccc(Br)c(Cl)c2)C(C)C3)cc1` (single isomer, unassigned) [Compound 72, 4-[(11S*)-5-benzyl-12-(4-bromo-3-chlorobenzoyl)-11-methyl-8-oxo-2,3,7,12-tetraazatricyclo[7.4.0.0^[2,6]]trideca-1(9),3,5-trien-7-yl]-N-methylbenzamide]: not above 100 nM.

Take `COc1ccc(-n2c(=O)c3c(n4ncc(Nc5ccccc5)c24)CN(C(=O)c2ccc(Br)c(Cl)c2)CC3)cc1` [Compound 32, 12-(4-bromo-3-chlorobenzoyl)-7-(4-methoxyphenyl)-5-(phenylamino)-2,3,7,12-tetraazatricyclo[7.4.0.0^[2,6]]trideca-1(9),3,5-trien-8-one]: the EC50 was not above 100 nM.
